Patent publication US20140288052A1, “SUBSTITUTED BICYCLIC AZA-HETEROCYCLES AND ANALOGUES AS SIRTUIN MODULATORS” (GlaxoSmithKline, LLC, priority 2011, published 2014)

Columns and labels:
SIRT1 [1] = target: T1, SIRT1 (Homo sapiens, UniProt Q96EB6); assay: TAMRA based mass spectrometry assay of SIRT1 deacetylase activation; type: biochemical; details: TAMRA peptide substrate; for TAMRA EC1.5 (μM): concentration that results in 150% activation of SIRT1; for TAMRA % Fold Act: percent maximum fold activation relative to control (100%)
T1 sequence (Q96EB6 1-747): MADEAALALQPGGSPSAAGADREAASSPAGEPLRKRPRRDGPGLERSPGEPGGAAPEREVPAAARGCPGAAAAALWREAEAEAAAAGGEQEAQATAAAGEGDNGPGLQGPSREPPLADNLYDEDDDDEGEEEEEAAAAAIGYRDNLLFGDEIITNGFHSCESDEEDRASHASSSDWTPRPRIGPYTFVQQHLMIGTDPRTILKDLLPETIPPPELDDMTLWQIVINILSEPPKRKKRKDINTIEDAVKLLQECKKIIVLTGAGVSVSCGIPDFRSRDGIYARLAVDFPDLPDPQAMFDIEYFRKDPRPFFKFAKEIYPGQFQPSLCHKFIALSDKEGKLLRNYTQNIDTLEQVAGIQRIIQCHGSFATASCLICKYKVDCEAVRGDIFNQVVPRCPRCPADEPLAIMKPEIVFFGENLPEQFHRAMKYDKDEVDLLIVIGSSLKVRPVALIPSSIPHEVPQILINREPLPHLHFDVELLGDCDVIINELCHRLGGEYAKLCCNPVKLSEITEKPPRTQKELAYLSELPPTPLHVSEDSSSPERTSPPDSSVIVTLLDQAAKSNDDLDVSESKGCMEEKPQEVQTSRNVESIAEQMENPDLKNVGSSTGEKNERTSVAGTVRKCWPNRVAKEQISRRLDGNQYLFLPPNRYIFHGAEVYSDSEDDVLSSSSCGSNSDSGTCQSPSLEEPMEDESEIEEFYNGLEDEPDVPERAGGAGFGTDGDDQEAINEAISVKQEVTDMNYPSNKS
Source text: (§1) Mass spectrometry based assays were used to identify modulators of SIRT1 activity. The TAMRA based assay utilized a peptide having 20 amino acid residues as follows: Ac-EE-K(biotin)-GQSTSSHSK(Ac)NleSTEG-K(5TMR)-EE-NH2 (SEQ ID NO: 1), wherein K(Ac) is an acetylated lysine residue and Nle is a norleucine. The peptide was labeled with the fluorophore 5TMR (excitation 540 nm/emission 580 nm) at the C-terminus. The sequence of the peptide substrate was based on p53 with several modifications. In addition, the methionine residue naturally present in the sequence was replaced with the norleucine because the methionine may be susceptible to oxidation during synthesis and purification. The Trp based assay utilized a peptide having an amino acid residues as follows: Ac-R-H-K-K(Ac)-W-NH2 (SEQ ID NO: 2).
The TAMRA based mass spectrometry assay was conducted as follows: 0.5 μM peptide substrate and 120 μM βNAD^+ was incubated with 10 nM SIRT1 for 25 minutes at 25° C. in a reaction buffer (50 mM Tris-acetate pH 8, 137 mM NaCl, 2.7 mM KCl, 1 mM MgCl2, 5 mM DTT, 0.05% BSA). The SIRT1 protein was obtained by cloning the SirT1 gene into a T7-promoter containing vector, which was then transformed and expressed in BL21(DE3) bacterial cells. Test compound was added at varying concentrations to this reaction mixture and the resulting reactions were monitored. After the 25 minute incubation with SIRT1, 10 μL of 10% formic acid was added to stop the reaction. The resulting reactions were sealed and frozen for later mass spec analysis. Determination of the amount of deacetylated substrate peptide formed (or, alternatively, the amount of O-acetyl-ADP-ribose (OAADPR) generated) by the sirtuin-mediated NAD-dependent deacetylation reaction allowed for the precise measurement of relative SIRT1 activity in the presence of varying concentrations of the test compound versus control reactions lacking the test compound.
(§2) A control for inhibition of sirtuin activity was conducted by adding 1 μL of 500 mM nicotinamide as a negative control at the start of the reaction (e.g., permits determination of maximum sirtuin inhibition). A control for activation of sirtuin activity was conducted using 10 nM of sirtuin protein, with 1 μL of DMSO in place of compound, to determine the amount of deacetylation of the substrate at a given time point within the linear range of the assay. This time point was the same as that used for test compounds and, within the linear range, the endpoint represents a change in velocity. For the above assay, SIRT1 protein was expressed and purified as follows. The SirT1 gene was cloned into a T7-promoter containing vector and transformed into BL21(DE3). The protein was expressed by induction with 1 mM IPTG as an N-terminal His-tag fusion protein at 18° C. overnight and harvested at 30,000×g. Cells were lysed with lysozyme in lysis buffer (50 mM Tris-HCl, 2 mM Tris[2-carboxyethyl] phosphine (TCEP), 10 μM ZnCl2, 200 mM NaCl) and further treated with sonication for 10 min for complete lysis. The protein was purified over a Ni-NTA column (Amersham) and fractions containing pure protein were pooled, concentrated and run over a sizing column (Sephadex S200 26/60 global). The peak containing soluble protein was collected and run on an Ion-exchange column (MonoQ). Gradient elution (200 mM-500 mM NaCl) yielded pure protein. This protein was concentrated and dialyzed against dialysis buffer (20 mM Tris-HCl, 2 mM TCEP) overnight. The protein was aliquoted and frozen at −80° C. until further use.
Sirtuin-modulating compounds of Formula (I) that activated SIRT1 were identified using the assay described above and are shown below in Table 1. The EC1.5 values represent the concentration of test compounds that result in 150% activation of SIRT1. The EC1.5 values for the activating compounds of Formula (I) are represented by A (EC1.5<1 μM), B (EC1.5 1−25 μM), C (EC1.5>25 μM). […]

SIRT1 [2] = target: T1, SIRT1; assay: Trp mass spectrometry assay of SIRT1 deacetylase activation; type: biochemical; details: Trp peptide substrate; for TRP EC1.5 (μM): concentration that results in 150% activation of SIRT1; for TRP % Fold Act: percent maximum fold activation relative to control (100%)
Source text: as §1
The Trp mass spectrometry assay was conducted as follows. 0.5 μM peptide substrate and 120 μM βNAD^+ were incubated with 10 nM SIRT1 for 25 minutes at 25° C. in a reaction buffer (50 mM HEPES pH 7.5, […], 1 mM DTT, 0.05% BSA). The SIRT1 protein was obtained by cloning the SirT1 gene into a T7-promoter containing vector, which was then expressed in BL21(DE3) bacterial cells and purified as described in further detail below. Test compound was added at varying concentrations to this reaction mixture and the resulting reactions were monitored. After the 25 minute incubation with SIRT1, 10 μL of 10% formic acid was added to stop the reaction. The resulting reactions were sealed and frozen for later mass spec analysis. The relative SIRT1 activity was then determined by measuring the amount of O-acetyl-ADP-ribose (OAADPR) formed (or, alternatively, the amount of deacetylated Trp peptide generated) by the NAD-dependent sirtuin deacetylation reaction in the presence of varying concentrations of the test compound versus control reactions lacking the test compound. The degree to which the test agent activated deacetylation by SIRT1 was expressed as EC1.5 (i.e., the concentration of compound required to increase SIRT1 activity by 50% over the control lacking test compound), and Percent Maximum Activation (i.e., the maximum activity relative to control (100%) obtained for the test compound).
as §2
Sirtuin-modulating compounds of Formula (I) that activated SIRT1 were identified using the assay described above and are shown below in Table 1. […]

Compound	TAMRA EC1.5 (μM) (SIRT1 [1])	TAMRA % Fold Act (SIRT1 [1])	TRP EC1.5 (μM) (SIRT1 [2])	TRP % Fold Act (SIRT1 [2])
O=C(Nc1ccccn1)c1cc(N2CCOCC2)nn2cc(-c3cccc(Cl)c3)nc12 [Compound 32]	C (EC1.5>25 μM)	B (Fold Activation<350%)	C (EC1.5>25 μM)	B (Fold Activation<350%)
O=C(Nc1ccnc2cc(-c3cccc(C(F)(F)F)c3)nn12)c1cscn1 [Compound 66]	C (EC1.5>25 μM)	B (Fold Activation<350%)	C (EC1.5>25 μM)	B (Fold Activation<350%)
O=C(Nc1ccccn1)c1cc(N2CCOCC2)nn2cc(-c3ccccc3Cl)nc12 [Compound 36]	C (EC1.5>25 μM)	B (Fold Activation<350%)	C (EC1.5>25 μM)	B (Fold Activation<350%)
Cc1cnc(NC(=O)c2ccnn3cc(-c4cccc(C(F)(F)F)c4)nc23)s1 [Compound 18]	C (EC1.5>25 μM)	B (Fold Activation<350%)	C (EC1.5>25 μM)	B (Fold Activation<350%)
O=C(Nc1nccs1)c1ccnn2cc(-c3cccc(C(F)(F)F)c3)nc12 [Compound 17]	C (EC1.5>25 μM)	B (Fold Activation<350%)	C (EC1.5>25 μM)	B (Fold Activation<350%)
O=C(Nc1nccs1)c1cc(N2CCOCC2)nn2cc(-c3ccccc3F)nc12 [Compound 37]	C (EC1.5>25 μM)	B (Fold Activation<350%)	C (EC1.5>25 μM)	B (Fold Activation<350%)
O=C(Nc1cccnc1)c1ccnc2cc(-c3cccc(C(F)(F)F)c3)nn12 [Compound 85]	C (EC1.5>25 μM)	B (Fold Activation<350%)	C (EC1.5>25 μM)	B (Fold Activation<350%)
O=C(Nc1ccnc2cc(-c3ccccc3C(F)(F)F)nn12)c1cccc(OCC(O)CO)n1 (stereo not drawn) [Compound 65]	A (EC1.5<1 μM)	A (Fold activation≧350%)	A (EC1.5<1 μM)	A (Fold activation≧350%)
O=C(Nc1ccnc2cc(-c3cccc(C(F)(F)F)c3)nn12)c1cccc(OCC(O)CO)n1 (stereo not drawn) [Compound 74]	B (EC1.5 1−25 μM)	B (Fold Activation<350%)	B (EC1.5 1−25 μM)	B (Fold Activation<350%)
O=C(Nc1ccccn1)c1cc(N2CCOCC2)nn2cc(-c3cccc(C(F)(F)F)c3)nc12 [Compound 49]	C (EC1.5>25 μM)	B (Fold Activation<350%)	C (EC1.5>25 μM)	B (Fold Activation<350%)
O=C(Nc1nccs1)c1cc(N2CCOCC2)nn2cc(-c3cccc(C(F)(F)F)c3)nc12 [Compound 47]	C (EC1.5>25 μM)	B (Fold Activation<350%)	C (EC1.5>25 μM)	B (Fold Activation<350%)
O=C(Nc1cccnc1)c1cc(N2CCOCC2)nn2cc(-c3cccc(F)c3)nc12 [Compound 28]	C (EC1.5>25 μM)	B (Fold Activation<350%)	C (EC1.5>25 μM)	B (Fold Activation<350%)

Continued, values first:

TAMRA EC1.5 (μM) (SIRT1 [1])	TAMRA % Fold Act (SIRT1 [1])	TRP EC1.5 (μM) (SIRT1 [2])	TRP % Fold Act (SIRT1 [2])	Compound
A (EC1.5<1 μM)	A (Fold activation≧350%)	B (EC1.5 1−25 μM)	B (Fold Activation<350%)	O=C(Nc1ccnc2cc(-c3ccccc3C(F)(F)F)nn12)c1ncccc1F [Compound 113]
A (EC1.5<1 μM)	A (Fold activation≧350%)	C (EC1.5>25 μM)	B (Fold Activation<350%)	Cc1cccc(C(=O)Nc2ccnc3cc(-c4ccccc4C(F)(F)F)nn23)n1 [Compound 109]
B (EC1.5 1−25 μM)	B (Fold Activation<350%)	C (EC1.5>25 μM)	B (Fold Activation<350%)	Cc1cnc(NC(=O)c2ccnc3cc(-c4cccc(C(F)(F)F)c4)nn23)s1 [Compound 88]
B (EC1.5 1−25 μM)	B (Fold Activation<350%)	C (EC1.5>25 μM)	B (Fold Activation<350%)	O=C(Nc1ccnc2cc(-c3ccccc3C(F)(F)F)nn12)c1cccnc1 [Compound 103]
A (EC1.5<1 μM)	A (Fold activation≧350%)	C (EC1.5>25 μM)	B (Fold Activation<350%)	O=C(Nc1ccnc2cc(-c3ccccc3C(F)(F)F)nn12)c1cnc(O)cn1 [Compound 117]
C (EC1.5>25 μM)	B (Fold Activation<350%)	C (EC1.5>25 μM)	B (Fold Activation<350%)	O=C(Nc1nccs1)c1ccnc2cc(-c3cccc(C(F)(F)F)c3)nn12 [Compound 87]
